# How the values were obtained:
# [1] = system: C57BL/6J mice; assay: oral glucose tolerance after nine weeks of supplemented feeding and exercise; format: in vivo; conditions: 3.4 mg/g of pediatric nutritional supplement, fed nine weeks with exercise; oral glucose 2 g/Kg; compared to rodent pellet feed control, pediatric nutritional supplement control and both leucine groups (5 and 10 mg/g); FIG. 1
# Procedure: In this Example, the effect of (1) HMB and (2) leucine on muscle glucose tolerance was analyzed in an in vivo study.
# C57BL/6J mice (Charles River Laboratories, Wilmington Mass.), 21 days post-weaning, were fed either a commercially available pediatric nutritional supplement supplemented with either (1) calcium HMB or (2) leucine, and required to exercise, for nine weeks. […]
# Following the nine weeks, the mice were kept overnight for fasting and body weight was recorded. […] Before glucose administration, the blood glucose was measured by tail snip using one-touch ultra Glucometer and glucose strips.
# All test groups were orally administered the glucose solution at a concentration of 2 g/Kg body weight. […] After oral glucose administration, blood glucose levels were analyzed at different time points (i.e., 15, 30, 60, 90, and 120 minutes) using Glucometer and glucose strips.
# [2] = system: Spragley-Dawley (SD) rats; assay: effect of an acute oral dose given before a glucose load on the blood glucose spike (lowering glycemic index); format: in vivo; conditions: given 30 minutes before glucose load of approximately 2 g/kg, FIG. 2
# Procedure: In this Example, the effect of calcium HMB on lowering glycemic index was evaluated in an in vivo study. Particularly, an acute oral dose of calcium HMB was evaluated to determine whether, if given prior to a glucose load, the dose was able to blunt the initial glucose spike.
# Spragley-Dawley (SD) rats (21 days post weaning) (n=7 or 8) were fed an oral dose of calcium HMB at a concentration of: 100 mg/kg (mpk), 300 mpk or 1000 mpk. After thirty minutes, the rats were then orally fed a glucose load consisting of a glucose solution having a concentration of approximately 2 g/kg body weight. A control group (n=4) was not fed the oral dose of calcium HMB prior to the glucose load.
# Blood glucose levels of the rats were measured by tail snip using one-touch ultra Glucometer and glucose strips at different time points (0, 15, 30, 45, 60, 90, and 120 minutes).
structure (smiles),measurement,setting,value
"CC(C)(O)CC(=O)O.[Ca] [Calcium HMB, calcium beta-hydroxy-beta-methylbutyric acid]",glucose tolerance (blood glucose after oral glucose administration),[1],improved glucose tolerance
same,glucose spike at 15 minutes post dosing,[2]; 1000 mpk oral,significantly reduced glucose spike
same,glucose spike at early time points,[2]; high oral doses,significantly blunted glucose spike
